Measurements: patent publication US10662218B2, “Analogs of celastrol” (ERX Pharmaceuticals, Inc., priority 2015, dated 2020)
Converted amounts (≈) assume the structure as drawn. “And” between values parts separate entries of the source, which are not always exact repeats. Identical values can stand only once. “Also recorded” adds a separate entry of the source. Like-named read-outs stand apart in the source and are kept apart here.

How the values were obtained:
[1] = test system: C57BL/6 Diet Induced Obese (DIO) mice; assay: Oral (P.O.) administration study in DIO mice: in vivo activity, body weights; parameters: species or system mouse; details: for area under the curve (AUC) for cumulative body weight change / area under the curve (AUC) for daily body weight change / cumulative body weight change: 2 mg/kg oral gavage once daily for 10 days, compared with controls; for Individual Body Weight, PRED 11: pre-dose phase day 11 (baseline); for Individual Body Weight, PRED 12: pre-dose phase day 12 (baseline); for Individual Body Weight, PRED 13: pre-dose phase day 13 (baseline); for Individual Body Weight, PRED 14: pre-dose phase day 14 (baseline); for Individual Body Weight, DSNG 1: dosing phase day 1; for Individual Body Weight, DSNG 2: dosing phase day 2; for Individual Body Weight: individual male animals; for Body weight, Mean / change in vivo at 2 mg/kg: male; for change in vivo at 2 mg/kg: Mus musculus, po, read-out: Body weight, %-Diff
In short: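 Male C57BL/6 DIO mice (21-22 weeks, 29.8-40.1 g) were gavage-acclimated with vehicle, then dosed orally once daily for 10 days at 2 mL/kg. Body weight was recorded daily before dosing. Cumulative change and AUC were analysed by one-way ANOVA with Dunnett's test.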

[2] = test system: C57BL/6 Diet Induced Obese (DIO) mice; assay: Oral (P.O.) administration study in DIO mice: food consumption; type: in vivo, mouse; details: 2 mg/kg oral gavage once daily for 10 days, compared with controls
Method: (§1) Dose formulations were administered by oral gavage once daily for 10 days at a dose volume of 2 mL/kg. Doses were based on the most recently recorded scheduled body weight.
A quantitative assessment of food consumption was recorded daily on Days 11 through 14 of the predose phase and daily prior to dosing during the dosing phase.
(§2) Descriptive statistics (n, mean, standard error of the mean, standard deviation) were completed. Additionally, one-way analysis of variance followed by Dunnett's post-hoc test were performed on body weight (cumulative body weight change), glucose (glucose percent change), and food consumption (cumulative food consumption). Area under the curve (for body weight, cumulative body weight change, daily body weight change, and food consumption) was computed for treatment groups. An appropriate comparison test, such as one-way analysis of variance and Dunnett's, was performed on the group means for the area under the curve computations. Any additional statistical analysis and interpretation of the results were the responsibility of the sponsor.

[3] = test system: C57BL/6 Diet Induced Obese (DIO) mice; assay: Oral (P.O.) administration study in DIO mice: blood glucose level after 6 hours of fasting; type: in vivo, mouse; details: 2 mg/kg oral gavage once daily for 10 days, compared with controls
Method: as §1
Blood for blood glucose was collected from all animals via tail clip on Day 14 of the predose phase, and Day 11 of the dosing phase after 6 hours of fasting. A drop of blood from each animal was placed onto two different Accu-Chek® Aviva glucometers to assess glucose values. A third value was taken, if necessary.
as §2

[4] = in vivo
[5] = Compound solubility in PBS (pH 7.4), LC-MS/MS; details: PBS (pH 7.4), pH 7.4, aqueous buffer, kinetic from dmso stock, Solubility (μM) Mean, Table 6-C, test concentration 100 μM (1% of DMSO), shaken (1000 rpm) 1 h at room temperature, n = 2
Method: • Test concentration: 100 μM (1% of DMSO) • Test systems: PBS (pH 7.4) • Incubation condition: shaken (1000 rpm) for 1 h at room temperature • Sample size: Duplicates (n=2) • Bioanalytical method: LC-MS/MS

[6] = test system: C57BL/6 Diet Induced Obese (DIO) mice; assay: Oral (P.O.) administration study in DIO mice: animal fate (mortality) and clinical observations; details: individual male DIO mouse, 2 mg/kg; phase of fate Dosing, phase week 2, phase day 11
In short: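 Male C57BL/6 DIO mice received 2 mg/kg of each compound by oral gavage once daily for 10 days; vehicle was 1% methyl cellulose in citric acid/phosphate buffer. Mortality and clinical signs recorded alongside body weight, food intake and blood glucose; animals sacrificed Day 11.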

[7] = individual male DIO mouse of the 2 mg/kg group
[8] = individual male DIO mouse, 2 mg/kg, 2 mg/kg
[9] = individual male DIO mouse, group dosed 2 mg/kg, 2 mg/kg

CC1=C(O)C(=O)C=C2C1=CC=C1[C@@]2(C)CC[C@@]2(C)[C@@H]3C[C@](C)(C(=O)O)CC[C@]3(C)CC[C@]12C [ERX1000-4, Celastrol]
area under the curve (AUC) for cumulative body weight change [1]: statistically significant decreases
area under the curve (AUC) for daily body weight change [1]: statistically significant decreases
cumulative body weight change [1]: statistically significant decreases
Individual Body Weight, PRED 11 [1, 7]: 35.9 g and 35.1 g and 37.3 g and 34.5 g and 37.5 g
Individual Body Weight, PRED 12 [1, 7]: 35.2 g and 33.5 g and 37.4 g and 35.5 g and 37.3 g
Individual Body Weight, PRED 13 [1, 7]: 35.1 g and 32.5 g and 37.7 g and 34.0 g and 36.0 g
Individual Body Weight, PRED 14 [1, 7]: 35.5 g and 32.9 g and 37.9 g and 34.6 g and 37.2 g
Individual Body Weight, DSNG 1 [1, 8]: 34.6 g and 30.8 g and 37.0 g and 33.5 g and 34.9 g
Individual Body Weight, DSNG 2 [1, 8]: 34.4 g and 30.8 g and 36.4 g and 33.5 g and 35.0 g
cumulative food intake [2]: statistically significant decreases
glucose value percent change [3]: Statistically significant changes; also recorded: statistically significant decreases

Cc1c(O)c(O)cc2c1C(=O)C=C1[C@@]2(C)CC[C@@]2(C)[C@@H]3C[C@](C)(C(=O)O)CC[C@]3(C)CC[C@]12C [ERX1030]
Oral bioavailability [4]: −

CC(=O)N[C@]1(C)CC[C@]2(C)CC[C@]3(C)C4=CC=C5C(=CC(=O)C(O)=C5C)[C@]4(C)CC[C@@]3(C)[C@@H]2C1 [ERX1168]
solubility at 1 h [5]: 5.05 µM (≈ 2.34 µg/mL)
area under the curve (AUC) for cumulative body weight change [1]: statistically significant decreases
area under the curve (AUC) for daily body weight change [1]: statistically significant decreases
cumulative body weight change [1]: statistically significant decreases
Individual Body Weight ([1]; 2 mg/kg, Phase Day DSNG 3): 30.7 g and 37.3 g and 34.4 g and 30.5 g and 28.3 g
Individual Body Weight ([1]; 2 mg/kg, Phase Day DSNG 4): 30.0 g and 37.5 g and 34.2 g and 29.1 g and 28.9 g
Individual Body Weight ([1]; 2 mg/kg, Phase Day DSNG 5): 29.2 g and 36.1 g and 33.2 g and 28.8 g and 28.0 g
Individual Body Weight ([1]; 2 mg/kg, Phase Day DSNG 6): 28.4 g and 33.9 g and 31.6 g and 27.0 g and 26.7 g
Individual Body Weight ([1]; 2 mg/kg, Phase Day DSNG 7): 28.9 g and 32.3 g and 30.7 g and 27.0 g and 27.3 g
Individual Body Weight ([1]; 2 mg/kg, Phase Day DSNG 8): 28.7 g and 32.7 g and 29.5 g and 27.7 g and 26.9 g
Body weight, Mean ([1]; DIO mice, 2 mg/kg, phase DSNG, Day 7): 29.2 g
Body weight, Mean ([1]; DIO mice, 2 mg/kg, phase DSNG, Day 8): 29.1 g
Body weight, Mean ([1]; DIO mice, 2 mg/kg, phase DSNG, Day 9): 30.0 g
Body weight, Mean ([1]; DIO mice, 2 mg/kg, phase DSNG, Day 10): 29.2 g
Body weight, Mean ([1]; DIO mice, 2 mg/kg, phase DSNG, Day 11): 29.2 g
Body weight, Mean ([1]; Day 1, DSNG phase, 2 mg/kg, N=5): 34.5 g
Body weight, Mean ([1]; Day 2, DSNG phase, 2 mg/kg, N=5): 34.0 g
Body weight, Mean ([1]; Day 3, DSNG phase, 2 mg/kg, N=5): 32.2 g
Body weight, Mean ([1]; Day 4, DSNG phase, 2 mg/kg, N=5): 31.9 g
Body weight, Mean ([1]; Day 5, DSNG phase, 2 mg/kg, N=5): 31.1 g
Body weight, Mean ([1]; Day 6, DSNG phase, 2 mg/kg, N=5): 29.5 g
change in vivo at 2 mg/kg ([1]; 24 h, Day 1, DSNG phase, 2 mg/kg, difference of group mean): 1%
change in vivo at 2 mg/kg ([1]; 48 h, Day 2, DSNG phase, 2 mg/kg, difference of group mean): -1%
change in vivo at 2 mg/kg ([1]; 72 h, Day 3, DSNG phase, 2 mg/kg, difference of group mean): -5%
change in vivo at 2 mg/kg ([1]; 96 h, Day 4, DSNG phase, 2 mg/kg, difference of group mean): -4%
change in vivo at 2 mg/kg ([1]; 120 h, Day 5, DSNG phase, 2 mg/kg, difference of group mean): -8%
change in vivo at 2 mg/kg ([1]; 144 h, Day 6, DSNG phase, 2 mg/kg, difference of group mean): -12%
change in vivo at 2 mg/kg ([1]; 168 h, DIO mice, 2 mg/kg, phase DSNG, Day 7, difference of group mean from vehicle group 1): -13%
change in vivo at 2 mg/kg ([1]; 192 h, DIO mice, 2 mg/kg, phase DSNG, Day 8, difference of group mean from vehicle group 1): -14%
change in vivo at 2 mg/kg ([1]; 216 h, DIO mice, 2 mg/kg, phase DSNG, Day 9, difference of group mean from vehicle group 1): -10%
change in vivo at 2 mg/kg ([1]; 240 h, DIO mice, 2 mg/kg, phase DSNG, Day 10, difference of group mean from vehicle group 1): -13%
change in vivo at 2 mg/kg ([1]; 264 h, DIO mice, 2 mg/kg, phase DSNG, Day 11, difference of group mean from vehicle group 1): -14%
Individual Body Weight, DSNG 1 [1, 8]: 33.1 g and 39.5 g and 36.9 g and 31.9 g and 31.1 g
Individual Body Weight, DSNG 2 [1, 8]: 32.5 g and 40.4 g and 36.2 g and 31.2 g and 29.9 g
Individual Body Weight, PRED 11 [1, 9]: 35.6 g and 39.3 g and 37.3 g and 35.3 g and 33.0 g
Individual Body Weight, PRED 12 [1, 9]: 35.2 g and 40.3 g and 37.2 g and 33.1 g and 31.0 g
Individual Body Weight, PRED 13 [1, 9]: 35.0 g and 40.4 g and 37.2 g and 32.5 g and 30.6 g
Individual Body Weight, PRED 14 [1, 9]: 35.1 g and 41.2 g and 37.5 g and 33.3 g and 32.1 g
area under the curve (AUC) for cumulative food intake [2]: statistically significant decreases
cumulative food intake [2]: statistically significant decreases
glucose value percent change [3]: Statistically significant changes; also recorded: statistically significant decreases
Individual Animal Fate: Fate Status [6]: Scheduled Sacrifice
